# Results: patent US20080306044A1, “SPIROBENZOAZEPANES AS VASOPRESSIN ANTAGONISTS” (priority 2007, published 2008)
# Assays:
# human V1a receptor [1] = target: T1, human V1a receptor (Homo sapiens, UniProt P37288); assay: In-vitro binding assay (3H-arginine-8-vasopressin), V1a; conditions: for IC50: membrane containing human V1a receptor, 3H-arginine-8-vasopressin 0.65-0.75 nM; for inhibition at 0.2 µM: test concentration of 0.2 μM, read-out: V1a binding percent inhibition (in parentheses, where an IC50 value was not obtained)
# T1 construct: expressed in transfected cells
# Description: (§1) Assay buffer is 50 mM Tris-Cl, 5 mM MgCl2, 0.1% BSA (pH 7.5) containing 5 μg/mL of aprotinin, leupeptin, pepstatin, 50 μg/mL bacitracin, and 1 mM Pefabloc (4-(2-aminoethyl)-benzenesulfonyl fluoride, hydrochloride manufactured by Roche Diagnostics Corporation, Indianapolis, Ind. and distributed by Boehringer Mannheim). H3 vasopressin is ^3H-arginine-8-vasopressin (NEN Life Sciences, Boston, Mass.; 68.5 Ci/mmol, final concentration in assay is 0.65-0.75 nM). Into the wells of a 96-well round bottom polypropylene plates are added buffer, test compound, membrane (containing human V1a or V2 receptor), and H3 vasopressin. The reaction plates are allowed to sit at room temperature for one hour. The samples are filtered through Unifilter GF/C plates (PerkinElmer Life Sciences, Boston, Mass.) presoaked in 0.3 polyethyleneimine. The plates are washed 5 times with cold physiological saline containing 0.05% Tween 20. After drying, the bottom of the filter plates are sealed and 0.025 mL of Microscint-20 (Packard Instrument Co, Meriden, Conn.) is added to each filter. The top of the plate is sealed, and the plate is counted. Non-specific binding is determined by the addition of 1.25 μM arginine-8-vasopressin in those wells.
# (§2) The % inhibition for the test results was calculated according to the formula: […]
# Where an IC50 value was not obtained, the percent inhibition values are shown in parentheses (*) and were obtained at a test concentration of 0.2 μM.
# human V2 receptor [2] = target: T2, human V2 receptor (Homo sapiens, UniProt P30518); assay: In-vitro binding assay (3H-arginine-8-vasopressin), V2; conditions: for IC50: membrane containing human V2 receptor, 3H-arginine-8-vasopressin 0.65-0.75 nM; for inhibition at 0.2 µM: test concentration of 0.2 μM, read-out: V2 binding percent inhibition (in parentheses, where an IC50 value was not obtained)
# Description: as §1, with “H3 vasopressin is ^3H-arginine-8-vasopressin (NEN Life Sciences, Boston, Mass.; 68.5 Ci/mmol, final concentration in assay is 0.65-0.75 nM).” left out, “counted.” for “counted. Non-specific binding is determined by the addition of 1.25 μM arginine-8-vasopressin in those wells.”
# as §2
# human V1a receptor [3] = target: T1, human V1a receptor; assay: cell-based
# Description: The V1a receptor is a G-protein coupled receptor, which upon activation triggers an increase in intracellular calcium mobilization. To evaluate compounds for their functional V1a receptor activity, HEK-293 cells were transfected with the human V1a receptor (V1a-HEK cells). HEK-293 cells were grown in DMEM (Dulbecco's modified Eagle Media) supplemented with 10% FBS and glutamine. HEK-cells were passed biweekly by trypsinization and seeded into 96 well plates at 33,000 cells per well. HEK-293 cells were transfected with human V1a receptor DNA using DMRIE-C reagent from Life Technologies (Carlsbad, Calif.). Stable lines were generated by selecting cells grown in culture media containing geneticin. After growing in Packard Clear-View black 96 well plates for 4-6 days, V1a-HEK cells were loaded with the calcium-sensitive fluorescence dye, FLUO-3 AM. Changes in intracellular calcium mobilization were measured by quantitating intracellular fluorescence using FLIPR (Fluorometric Imaging Plate Reader; Molecular Devices, Sunnyvale, Calif.). Test compounds were first added to the cells and the resulting changes in fluorescence measured to detect receptor agonistic activity. Five minutes later the cells were challenged with vasopressin to test compounds for their antagonistic activity. Receptor antagonists inhibit the ability of vasopressin to stimulate increases in intracellular fluorescence.
# human V2 receptor [4] = target: T2, human V2 receptor; assay: V2 vasopressin receptor functional activity (cAMP accumulation); format: cell-based; parameters: expressed in transfected cells; host or cells: HEK-293; conditions: V2-HEK cells; block of vasopressin-stimulated cAMP accumulation; read-out: V2 (functional) IC50
# Description: The V2 receptor is also a G-protein coupled receptor which when activated induces an increase in cAMP turnover. Antagonism against the V2 receptor is determined by measuring cAMP accumulation in transfected HEK-293 cells expressing the human V-2 receptor (V2-HEK cells). Compounds are tested for their ability to block the stimulatory effects of vasopressin on cAMP accumulation. The cell content of cAMP is measured by radioimmunoassay using NEN flashplates.
# [5] = V1 (functional) IC50, V1a-HEK cells, inhibition of vasopressin-stimulated intracellular calcium mobilization
# T1 sequence (P37288 whole entry): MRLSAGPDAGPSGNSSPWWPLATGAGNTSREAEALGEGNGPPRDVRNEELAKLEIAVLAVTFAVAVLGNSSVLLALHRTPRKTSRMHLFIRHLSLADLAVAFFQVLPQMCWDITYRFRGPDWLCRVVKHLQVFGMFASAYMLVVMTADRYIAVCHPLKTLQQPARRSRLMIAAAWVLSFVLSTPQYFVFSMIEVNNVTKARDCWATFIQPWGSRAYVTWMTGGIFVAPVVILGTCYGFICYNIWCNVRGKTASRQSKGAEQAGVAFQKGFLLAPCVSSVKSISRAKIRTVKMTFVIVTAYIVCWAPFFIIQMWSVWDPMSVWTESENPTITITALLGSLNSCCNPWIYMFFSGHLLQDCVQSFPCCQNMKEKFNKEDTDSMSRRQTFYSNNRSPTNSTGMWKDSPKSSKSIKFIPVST
# T2 sequence (P30518 whole entry): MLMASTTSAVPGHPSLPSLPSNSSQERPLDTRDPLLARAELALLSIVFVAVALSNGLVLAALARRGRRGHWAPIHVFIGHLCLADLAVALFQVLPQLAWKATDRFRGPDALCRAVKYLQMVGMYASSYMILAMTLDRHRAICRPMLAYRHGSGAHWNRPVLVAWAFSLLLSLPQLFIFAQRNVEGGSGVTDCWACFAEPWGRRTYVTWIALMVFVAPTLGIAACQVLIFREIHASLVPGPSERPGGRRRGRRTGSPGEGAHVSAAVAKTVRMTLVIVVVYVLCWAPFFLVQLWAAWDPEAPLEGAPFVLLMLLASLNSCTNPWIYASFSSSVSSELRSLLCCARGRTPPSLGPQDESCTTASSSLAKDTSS
SMILES,IC50 (human V1a receptor [1]),IC50 (human V2 receptor [2]),IC50 (human V2 receptor [4]),other results
"CON=C1CCCC12CCN(C(=O)c1ccc(NC(=O)c3cc(F)ccc3Cl)cc1)c1ccccc1C2 (centres unmarked) [Cpd 2, N-[4-(2-chloro-5-fluoro-phenylcarbonyl)amino-phenylcarbonyl]-2-methoxyimino-spiro[cyclopentane-1,4′-benzo[b]azepane]]",7 nM,44 nM,–,–
"NCC(=O)NC1CCCC12CCN(C(=O)c1ccc(NC(=O)c3ccccc3-c3ccccc3)cc1)c1ccccc1C2 (centres unmarked) [Cpd 40, 2-(aminomethylcarbonyl)amino-N-[4-(biphen-2-ylcarbonyl)amino-phenylcarbonyl]-spiro[cyclopentane-1,4′-benzo[b]azepane]]",23 nM,15 nM,200 nM,IC50 (human V1a receptor [3]): 290 nM
"CN(C)C1CCCC12CCN(C(=O)c1ccc(NC(=O)c3cc(F)ccc3Cl)cc1)c1ccccc1C2 (centres unmarked) [Cpd 6, N-[4-(2-chloro-5-fluoro-phenylcarbonyl)amino-phenylcarbonyl]-2-dimethylamino-spiro[cyclopentane-1,4′-benzo[b]azepane]]",10 nM,–,107 nM,inhibition at 0.2 µM (human V2 receptor [2]): 63%; IC50 (human V1a receptor [3]): 70 nM
"COc1cc(C(=O)N2CCC3(CCCC3=NO)Cc3ccccc32)ccc1NC(=O)c1cccc(F)c1 (centres unmarked) [Cpd 51, N-[3-methoxy-4-(3-fluoro-phenylcarbonyl)amino-phenylcarbonyl]-2-hydroxyimino-spiro[cyclopentane-1,4′-benzo[b]azepane]]",16 nM,87 nM,–,–
"O=C(Nc1ccc(C(=O)N2CCC3(CCCC3=NNc3ccccn3)Cc3ccccc32)cc1)c1cc(F)ccc1Cl (centres unmarked) [Cpd 43, N-[4-(2-chloro-5-fluoro-phenylcarbonyl)amino-phenylcarbonyl]-2-pyridin-2-ylaminoimino-spiro[cyclopentane-1,4′-benzo[b]azepane]]",5 nM,56 nM,200 nM,IC50 (human V1a receptor [3]; [5]): 80 nM
"COc1cc(C(=O)N2CCC3(CCCC3N)Cc3ccccc32)ccc1NC(=O)c1cc(F)ccc1Cl (centres unmarked) [Cpd 8, 2-amino-N-[3-methoxy-4-(2-chloro-5-fluoro-phenylcarbonyl)amino-phenylcarbonyl]-spiro[cyclopentane-1,4′-benzo[b]azepane]]",16 nM,83 nM,–,–
"COc1cc(C(=O)N2CCC3(CCCC3=NO)Cc3ccccc32)ccc1NC(=O)c1cc(F)ccc1Cl (centres unmarked) [Cpd 42, N-[3-methoxy-4-(2-chloro-5-fluoro-phenylcarbonyl)amino-phenylcarbonyl]-2-hydroxyimino-spiro[cyclopentane-1,4′-benzo[b]azepane]]",12 nM,39 nM,92 nM,IC50 (human V1a receptor [3]; [5]): 60 nM
"O=C(c1ccc(N2CCCC2)cc1)N1CCC2(CCCC2=NO)Cc2ccccc21 (centres unmarked) [Cpd 46, N-[4-pyrrolidin-1-yl-phenylcarbonyl]-2-hydroxyimino-spiro[cyclopentane-1,4′-benzo[b]azepane]]",–,–,–,inhibition at 0.2 µM (human V1a receptor [1]): 73%; inhibition at 0.2 µM (human V2 receptor [2]): 40%
"Cc1ccccc1C(=O)Nc1ccc(C(=O)N2CCC3(CCCC3=NO)Cc3ccccc32)cc1 (centres unmarked) [Cpd 49, N-[4-(2-methyl-phenylcarbonyl)amino-phenylcarbonyl]-2-hydroxyimino-spiro[cyclopentane-1,4′-benzo[b]azepane]]",12 nM,34 nM,–,–
"Cc1ccn(-c2ccc(C(=O)N3CCC4(CCCC4=NO)Cc4ccccc43)cc2)n1 (centres unmarked) [Cpd 47, N-[4-(3-methyl-1H-pyrazol-1-yl)-phenylcarbonyl]-2-hydroxyimino-spiro[cyclopentane-1,4′-benzo[b]azepane]]",–,–,–,inhibition at 0.2 µM (human V1a receptor [1]): 86%; inhibition at 0.2 µM (human V2 receptor [2]): 62%
"O=C(Nc1ccc(C(=O)N2CCC3(CCCC3=NO)Cc3ccccc32)cn1)c1cc(F)ccc1Cl (centres unmarked) [Cpd 10, N-[6-(2-chloro-5-fluoro-phenylcarbonyl)amino-pyridin-3-ylcarbonyl]-2-hydroxyimino-spiro[cyclopentane-1,4′-benzo[b]azepane]]",60 nM,70 nM,–,–
"COc1cc(C(=O)N2CC[C@@]3(CCC(NS(N)(=O)=O)C3)Cc3ccccc32)ccc1NC(=O)c1cc(F)ccc1Cl (stereo partly drawn) [Cpd 19, (1R)-3-aminosulfonylamino-N-[3-methoxy-4-(2-chloro-5-fluoro-phenylcarbonyl)amino-phenylcarbonyl]-spiro[cyclopentane-1,4′-benzo[b]azepane]]",–,–,120 nM,IC50 (human V1a receptor [3]; [5]): 100 nM
"CNC(=O)C=C1CC[C@@]2(CCN(C(=O)c3ccc(NC(=O)c4cc(F)ccc4Cl)c(OC)c3)c3ccccc3C2)C1 [Cpd 30, (R)—N-[3-methoxy-4-(2-chloro-5-fluoro-phenylcarbonyl)amino-phenylcarbonyl]-3-methylaminocarbonylmethylene-spiro[cyclopentane-1,4′-benzo[b]azepane]]",–,–,90 nM,IC50 (human V1a receptor [3]; [5]): 210 nM
"COc1cc(C(=O)N2CCC3(CCCC3N)Cc3ccccc32)ccc1NC(=O)c1cccc(F)c1 (centres unmarked) [Cpd 50, 2-amino-N-[3-methoxy-4-(3-fluoro-phenylcarbonyl)amino-phenylcarbonyl]-spiro[cyclopentane-1,4′-benzo[b]azepane]]",–,–,–,inhibition at 0.2 µM (human V1a receptor [1]): 89%; inhibition at 0.2 µM (human V2 receptor [2]): 9%
"Cc1ccc(F)cc1C(=O)Nc1ccc(C(=O)N2CCC3(CCCC3=NO)Cc3ccccc32)cc1 (centres unmarked) [Cpd 48, N-[4-(2-methyl-5-fluoro-phenylcarbonyl)amino-phenylcarbonyl]-2-hydroxyimino-spiro[cyclopentane-1,4′-benzo[b]azepane]]",16 nM,26 nM,–,–
"COc1cc(C(=O)N2CC[C@]3(C=C(C4=NCCN4)CC3)Cc3ccccc32)ccc1NC(=O)c1cc(F)ccc1Cl [Cpd 12, (R)-N-[3-methoxy-4-(2-chloro-5-fluoro-phenylcarbonyl)amino-phenylcarbonyl]-3-(4,5-dihydro-1H-imidazol-2-yl)-spiro[cyclopent-2-ene-1,4′-benzo[b]azepane]]",–,–,1100 nM,"IC50 (human V1a receptor [3]; V1a-HEK cells, inhibition of vasopressin-stimulated intracellular calcium mobilization, read-out: V1 (functional) IC50): 320 nM"
"COc1cc(C(=O)N2CC[C@@]3(CC[C@@H](NS(N)(=O)=O)C3)Cc3ccccc32)ccc1NC(=O)c1cc(F)ccc1Cl [Cpd 35, (1R,3R)-3-aminosulfonylamino-N-[3-methoxy-4-(2-chloro-5-fluoro-phenylcarbonyl)amino-phenylcarbonyl]-spiro[cyclopentane-1,4′-benzo[b]azepane]]",–,–,44 nM,IC50 (human V1a receptor [3]; [5]): 78 nM
"COc1cc(C(=O)N2CCC3(CCCC3NS(N)(=O)=O)Cc3ccccc32)ccc1NC(=O)c1cc(F)ccc1Cl (centres unmarked) [Cpd 33, 2-aminosulfonylamino-N-[3-methoxy-4-(2-chloro-5-fluoro-phenylcarbonyl)amino-phenylcarbonyl]-spiro[cyclopentane-1,4′-benzo[b]azepane]]",–,–,31 nM,IC50 (human V1a receptor [3]): 330 nM
